Source: patent publication US20220324865A1 (Bayer Aktiengesellschaft, priority 2018, published 2022)

What follows are compounds tested against T1, human EP3 receptor (Homo sapiens, UniProt P43115) (assay: Cellular in vitro assay for determining EP3 receptor activity (human EP3 cell line, sulprostone-stimulated calcium luminescence)). Conditions: CHO cells expressing human EP3 and mitochondrial Clytin; antagonist mode, sulprostone at EC50; read-out: EP3 CHO mtCLY ANTAG IC50.
T1 construct: expressed in transfected cells; host or cells: CHO K1 (Chinese Hamster Ovary), stably co-transfected with Galpha16 and mitochondrial clytin
T1 sequence (P43115 1-390): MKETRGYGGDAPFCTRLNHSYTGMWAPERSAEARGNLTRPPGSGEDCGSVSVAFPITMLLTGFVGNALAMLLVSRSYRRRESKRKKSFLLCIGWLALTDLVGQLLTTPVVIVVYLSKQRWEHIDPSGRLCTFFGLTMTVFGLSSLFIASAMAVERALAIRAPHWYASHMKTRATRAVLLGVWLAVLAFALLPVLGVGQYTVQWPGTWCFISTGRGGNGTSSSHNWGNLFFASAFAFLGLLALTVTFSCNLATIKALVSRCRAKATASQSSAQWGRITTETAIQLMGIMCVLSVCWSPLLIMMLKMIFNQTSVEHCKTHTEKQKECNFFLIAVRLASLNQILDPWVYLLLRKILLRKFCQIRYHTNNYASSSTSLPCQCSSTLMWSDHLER
Type: cell-based
How it was run: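 Antagonist activity was measured as inhibition of the luminescent calcium signal elicited by EC50 sulprostone, following 10 min compound pretreatment. The cell line was recombinant CHO K1 co-expressing human EP3, Gα16 and the photoprotein Clytin, reconstituted with coelenterazine.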

IC50	Structure (SMILES)
4.36 nM	CN(C)CC(NC(=O)c1cc2c(=O)[nH]c(-c3ccc4ccccc4c3)cn2n1)c1ccccc1 (racemic) [Example 1-4, rac-N-[2-(Dimethylamino)-1-phenylethyl]-6-(naphthalen-2-yl)-4-oxo-4,5-dihydropyrazolo[1,5-a]-pyrazine-2-carboxamide]
2 nM	Cc1ccc(-c2cn3nc(C(=O)NCC(O)C(F)(F)F)c(C4CC4)c3c(=O)[nH]2)cc1F (racemic) [Example 1-159, 3-Cyclopropyl-6-(3-fluoro-4-methylphenyl)-4-oxo-N-(3,3,3-trifluoro-2-hydroxpropyl)-4,5-dihydro-pyrazolo[1,5-a]pyrazine-2-carboxamide (racemate)]
1.85 nM	Cc1c(C(=O)N[C@@H](c2ccc(F)cc2)C(C)(C)O)nn2c(C)c(-c3ccc4ccccc4c3)[nH]c(=O)c12 [6-604]
1.25 nM	CCn1cc(CNC(=O)c2nn3c(C)c(-c4ccc5ccccc5c4)[nH]c(=O)c3c2C)c(C)n1 [Example 3-14, N-[(1-Ethyl-3-methyl-1H-pyrazol-4-yl)methyl]-3,7-dimethyl-6-(naphthalen-2-yl)-4-oxo-4,5-dihydropyrazolo[1,5-a]pyrazine-2-carboxamide]
0.82 nM	C[C@@H](NC(=O)c1nn2cc(-c3ccc4ccccc4c3)[nH]c(=O)c2c1C(F)(F)F)c1ccc(F)cc1 [Example 1-53, N-[(1R)-1-(4-Fluorophenyl)ethyl]-6-(naphthalen-2-yl)-4-oxo-3-(trifluoromethyl)-4,5-dihydropyrazolo[1,5-a]pyrazine-2-carboxamide]
1.01 nM	COc1cc(-c2cn3nc(C(=O)N[C@H](C)C4CC4)c(C4CC4)c3c(=O)[nH]2)ccc1Cl [6-483]
5.95 nM	Cc1ccc(-c2cn3nc(C(=O)NC[C@@]4(C5CC5)NC(=O)NC4=O)c(C4CC4)c3c(=O)[nH]2)cc1C [6-456]
1.36 nM	CC(C)c1c(C(=O)N[C@H](C)c2ccc(F)cc2)nn2cc(-c3ccc4ccccc4c3)[nH]c(=O)c12 [Example 1-8, N-[(1R)-1-(4-Fluorophenyl)ethyl]-6-(naphthalen-2-yl)-4-oxo-3-(propan-2-yl)-4,5-dihydropyrazolo-[1,5-a]pyrazine-2-carboxamide]
0.835 nM	Cc1cccc2ncc(-c3cn4nc(C(=O)NC5(c6ccccc6)CCOCC5)c(C(C)C)c4c(=O)[nH]3)cc12 [Example 4-77, 3-Isopropyl-6-(5-methylquinolin-3-yl)-4-oxo-N-(4-phenyltetrahydro-2H-pyran-4-yl)-4,5-dihydropyrazolo[1,5-a]pyrazine-2-carboxamide]
6.95 nM	Cc1ccc2c(c1)C(NC(=O)c1nn3cc(-c4cnc5cccc(C)c5c4)[nH]c(=O)c3c1C(C)C)CC(C)(C)O2 (stereo not shown) [Example 4-84, 3-Isopropyl-6-(5-methylquinolin-3-yl)-4-oxo-N-(2,2,6-trimethyl-3,4-dihydro-2H-chromen-4-yl)-4,5-dihydropyrazolo[1,5-a]pyrazine-2-carboxamide]
0.84 nM	Cc1ccc(-c2cn3nc(C(=O)NCC(O)C(F)(F)F)c(C4CC4)c3c(=O)[nH]2)cc1C (single isomer, unassigned) [6-436]
2.55 nM	COC[C@@H](NC(=O)c1nn2cc(-c3ccc(C(F)(F)F)c(C)c3)[nH]c(=O)c2c1C1CC1)c1ccccc1 [6-135]
4 nM	Cc1nn(C)cc1C(C)NC(=O)c1cc2c(=O)[nH]c(-c3ccc4ccccc4c3)cn2n1 (stereo not shown) [Example 2-5, N-[1-(1,3-Dimethyl-1H-pyrazol-4-yl)ethyl]-6-(2-naphthyl)-4-oxo-4,5-dihydropyrazolo[1,5-a]pyrazine-2-carboxamide]
1.2 nM	Cc1cccc2ncc(-c3cn4nc(C(=O)N[C@H](C)c5ccccc5)c(C(C)C)c4c(=O)[nH]3)cc12 [Example 4-27, 6-(5-Methylquinolin-3-yl)-4-oxo-N-[(1R)-1-phenylethyl]-3-(propan-2-yl)-4,5-dihydropyrazolo[1,5-a]pyrazine-2-carboxamide]
9.25 nM	Cc1cc(-c2cn3nc(C(=O)NCCN(CC(F)F)C4CC4)c(C4CC4)c3c(=O)[nH]2)ccc1C(F)(F)F [6-128]
1.25 nM	COCc1c(C(=O)N[C@@H](C)C2CC2)nn2cc(-c3ccc(Cl)c(C)c3)[nH]c(=O)c12 [6-622]
3.8 nM	Cc1cccc2ncc(-c3cn4nc(C(=O)N[C@H](CCO)c5ccc(F)cc5)cc4c(=O)[nH]3)cc12 [Example 1-113, N-[(1R)-1-(4-Fluorophenyl)-3-hydroxypropyl]-6-(5-methylquinolin-3-yl)-4-oxo-4,5-dihydropyrazolo[1,5-a]pyrazine-2-carboxamide]
3.95 nM	CC(COc1cc(Cl)cc(Cl)c1)NC(=O)c1nn2cc(-c3ccc4ccccc4c3)[nH]c(=O)c2c1C(F)(F)F (stereo not shown) [Example 1-118, N-[2-(3,5-Dichlorophenoxy)-1-methylethyl]-6-(2-naphthyl)-4-oxo-3-(trifluoromethyl)-5H-pyrazolo-[1,5-a]pyrazine-2-carboxamide]
2.05 nM	CC(NC(=O)c1cc2c(=O)[nH]c(-c3ccc4ccccc4c3)cn2n1)c1ccc(Cl)c(Cl)c1 (stereo not shown) [Example 2-51, N-[1-(3,4-Dichlorphenyl)ethyl]-6-(2-naphthyl)-4-oxo-4,5-dihydropyrazolo[1,5-a]pyrazine-2-carboxamide]
3 nM	COC[C@H](C)NC(=O)c1nn2cc(-c3ccc4ccccc4c3)[nH]c(=O)c2c1C(F)(F)F [6-515]

IC50	Structure (SMILES)
1.43 nM	Cc1ccc(-c2cn3nc(C(=O)N[C@@H](c4ccc(F)cc4)C(F)(F)CO)c(C)c3c(=O)[nH]2)cc1F [6-412]
2.3 nM	COC[C@@H](NC(=O)c1nn2cc(-c3ccc4c(c3)ncn4C)[nH]c(=O)c2c1C1CC1)c1ccccc1 [6-600]
7.6 nM	Cc1c(C(=O)NC(CO)c2cc(Cl)cc(Cl)c2)nn2c(C)c(-c3ccc4ccccc4c3)[nH]c(=O)c12 (stereo not shown) [Example 3-40, N-[1-(3,5-Dichlorophenyl)-2-hydroxyethyl]-3,7-dimethyl-6-(2-naphthyl)-4-oxo-5H-pyrazolo[1,5-a]pyrazine-2-carboxamide]
7.9 nM	Cc1cc(C)n(C(CNC(=O)c2cc3c(=O)[nH]c(-c4ccc5ccccc5c4)cn3n2)C(C)C)n1 (stereo not shown) [Example 2-19, N-[2-(3,5-Dimethyl-1H-pyrazol-1-yl)-3-methylbutyl]-6-(2-naphthyl)-4-oxo-4,5-dihydropyrazolo[1,5-a]pyrazine-2-carboxamide]
2.3 nM	Cc1ccc(-c2cn3nc(C(=O)NCC(O)C(F)(F)F)c(C(F)(F)F)c3c(=O)[nH]2)cc1Cl (single isomer, unassigned) [6-159]
3.9 nM	Cc1cccc2ncc(-c3cn4nc(C(=O)NC(CO)c5cc(Cl)cc(Cl)c5)c(C(C)C)c4c(=O)[nH]3)cc12 (stereo not shown) [Example 4-66, N-[1-(3,5-Dichlorophenyl)-2-hydroxyethyl]-3-isopropyl-6-(5-methyl-3-quinolyl)-4-oxo-5H-pyrazolo[1,5-a]pyrazine-2-carboxamide]
1.35 nM	COc1ccc(-c2cn3nc(C(=O)N[C@@H](c4ccc(F)cc4)C(F)(F)CO)c(C4CC4)c3c(=O)[nH]2)cc1F [6-586]
9.3 nM	CCn1nccc1CNC(=O)c1nn2c(C)c(-c3ccc(C)c(C)c3)[nH]c(=O)c2c1C(F)(F)F [6-13]
3.3 nM	C[C@@H](NC(=O)c1nn2cc(-c3cc(F)c(Cl)c(F)c3)[nH]c(=O)c2c1C1CC1)C1CC1 [6-473]
4 nM	CC(C)(O)[C@@H](NC(=O)c1nn2cc(-c3ccc4ccccc4c3)[nH]c(=O)c2c1C#N)c1ccc(F)cc1 [6-110]
6.07 nM	Cc1ccc(-c2cn3nc(C(=O)N[C@@H](c4ccc(F)cc4)C(C)(C)O)c(C4CC(F)(F)C4)c3c(=O)[nH]2)cc1Cl [6-559]
1.85 nM	CC(NC(=O)c1nn2cc(-c3ccc4ccccc4c3)[nH]c(=O)c2c1C#N)c1ccccc1OC(F)F (stereo not shown) [Example 3-60, 3-Cyano-N-[1-[2-(difluoromethoxy)phenyl]ethyl]-6-(2-naphthyl)-4-oxo-5H-pyrazolo[1,5-a]pyrazine-2-carboxamide]
0.84 nM	Cc1cc(-c2cn3nc(C(=O)N[C@@H](C)C4CC4)c(C4CC4(F)F)c3c(=O)[nH]2)ccc1Cl (stereo partly shown) [6-550]
3.95 nM	CC[C@@H](NC(=O)c1nn2cc(-c3cnc4cccc(C)c4c3)[nH]c(=O)c2c1C(C)C)c1ccccc1 [Example 4-49, 6-(5-Methylquinolin-3-yl)-4-oxo-N-[(1R)-1-phenylpropyl]-3-(propan-2-yl)-4,5-dihydropyrazolo[1,5-a]pyrazine-2-carboxamide]
0.575 nM	O=C(N[C@H](CCO)c1ccc(F)cc1)c1nn2cc(-c3ccc4ccccc4c3)[nH]c(=O)c2c1C(F)(F)F [Example 1-17, N-[(1R)-1-(4-Fluorophenyl)-3-hydroxpropyl]-6-(naphthalen-2-yl)-4-oxo-3-(trifluoromethyl)-4,5-dihydropyrazolo[1,5-a]pyrazine-2-carboxamide]
9.35 nM	Cc1cc(-c2cn3nc(C(=O)NCC(O)C(F)(F)F)c(C4CC4)c3c(=O)[nH]2)ccc1F (single isomer, unassigned) [6-655]
2.23 nM	O=C(N[C@@H]1CCN(CC(F)(F)F)C1)c1nn2cc(-c3ccc4ccccc4c3)[nH]c(=O)c2c1C(F)(F)F (racemic) [6-521]
7.6 nM	Cc1cc(-c2cn3nc(C(=O)NCC(N)C(F)(F)F)c(C4CC4)c3c(=O)[nH]2)ccc1C(F)(F)F (single isomer, unassigned) [6-132]
1.3 nM	Cc1cc(-c2cn3nc(C(=O)NCC(O)C(F)(F)F)c(C4CC4)c3c(=O)[nH]2)ccc1Cl (racemic) [6-312]
1.9 nM	Cc1cc(-c2cn3nc(C(=O)NC4(c5ccc(F)cc5)CN(CC(F)(F)F)C4)c(C(F)(F)F)c3c(=O)[nH]2)ccc1Cl [6-237]
